Measurements from ChEMBL document CHEMBL1201862, “PubChem BioAssay data set” (2004).
Structures can show the parent of a compound that is named as a salt. The source made the active and inactive calls.

How the values were obtained:
[1] = Fluorescence-based cell-based high throughput dose response assay for inhibitors of the interaction of nucleotide-binding oligomerization domain containing 2 (NOD2) and the receptor-interacting serine-threonine kinase 2 (RIPK2).; type: functional; settings: Homo sapiens
Paired box protein Pax-8 = Paired box protein Pax-8 (Homo sapiens, UniProt Q06710); assay: PAX8 transcriptional activity inhibition in RMG-I – RMG-I cells, luciferase, cherry-pick, dose response (AID 687027); type: functional, cell-based;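 also: luciferase reporter driven by Pax8 target thyroperoxidase promoter measured by SteadyGlo luminescence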
Paired box protein Pax-8, sequence (Q06710 whole entry): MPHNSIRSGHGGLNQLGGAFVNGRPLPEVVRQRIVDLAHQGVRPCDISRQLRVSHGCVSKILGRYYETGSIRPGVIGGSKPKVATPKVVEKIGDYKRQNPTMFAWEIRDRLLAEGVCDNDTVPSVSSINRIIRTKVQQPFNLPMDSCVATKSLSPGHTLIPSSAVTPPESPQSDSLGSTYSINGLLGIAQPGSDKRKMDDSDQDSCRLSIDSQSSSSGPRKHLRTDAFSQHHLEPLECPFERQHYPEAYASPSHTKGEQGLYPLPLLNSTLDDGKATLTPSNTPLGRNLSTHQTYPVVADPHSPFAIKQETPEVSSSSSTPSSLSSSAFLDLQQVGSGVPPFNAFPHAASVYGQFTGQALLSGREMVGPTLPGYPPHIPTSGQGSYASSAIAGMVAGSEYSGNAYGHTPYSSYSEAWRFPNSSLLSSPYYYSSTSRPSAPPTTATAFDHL

[2] = A549 cell cytotoxicity, dose response, cytotoxicity control, plate reader, cherry-pick, antagonist series (AID 743412); type: functional, cell-based
[3] = toxicity toward HepG2 liver cells – cell-based, plate reader, cherry-pick, antagonist series, cytotoxicity control, dose response (AID 743416); type: functional
[4] = blockers of bursicon-stimulated LGR2 cAMP reporter – cell-based, HEK293, CRE-luciferase reporter, cherry pick, set 2, dose response (AID 743343); type: functional;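 also: transfected cells were stimulated with diluted bursicon conditioned medium after compound addition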
[5] = blockade of melanocortin 4 receptor signaling – cell-based, plate reader, cherry pick, counter-screen for LGR2 antagonist project, dose response (AID 743444); type: functional;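 also: transfected HEK 293 cells stimulated with alpha-MSH peptide; potency of inhibitors of the alpha-MSH evoked signal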
[6] = viability loss in HEK293 cells – cell-based, plate reader, cherry-picked samples, cytotoxicity control, dose response (AID 743446); type: functional
Escherichia coli [7] = assay: microbe, parasite or virus in culture
Escherichia coli [8] = assay: microbe, parasite or virus in culture; remark: listed apart in the source
Caspase-3 = biological target: T1, Caspase-3 (Homo sapiens, UniProt P42574); type: functional;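 also: Dose-response selectivity test against caspase-3 for candidate inhibitors of sentrin-specific proteases (SENPs)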
T1 sequence (P42574 whole entry): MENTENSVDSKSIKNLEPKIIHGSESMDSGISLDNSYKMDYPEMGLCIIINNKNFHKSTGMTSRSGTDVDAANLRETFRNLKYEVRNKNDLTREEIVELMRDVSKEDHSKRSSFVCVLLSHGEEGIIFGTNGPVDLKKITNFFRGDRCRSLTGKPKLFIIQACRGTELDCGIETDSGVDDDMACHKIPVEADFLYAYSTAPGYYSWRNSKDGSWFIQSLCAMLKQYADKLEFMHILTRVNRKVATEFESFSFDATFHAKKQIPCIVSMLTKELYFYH

[9] = biological target: T2, Sentrin-specific protease 7 (Homo sapiens, UniProt Q9BQF6); type: functional;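 also: Luminescence-based dose-response confirmation of ultra-high-throughput screening hits, measuring inhibition of SENP7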
T2 sequence (Q9BQF6 whole entry): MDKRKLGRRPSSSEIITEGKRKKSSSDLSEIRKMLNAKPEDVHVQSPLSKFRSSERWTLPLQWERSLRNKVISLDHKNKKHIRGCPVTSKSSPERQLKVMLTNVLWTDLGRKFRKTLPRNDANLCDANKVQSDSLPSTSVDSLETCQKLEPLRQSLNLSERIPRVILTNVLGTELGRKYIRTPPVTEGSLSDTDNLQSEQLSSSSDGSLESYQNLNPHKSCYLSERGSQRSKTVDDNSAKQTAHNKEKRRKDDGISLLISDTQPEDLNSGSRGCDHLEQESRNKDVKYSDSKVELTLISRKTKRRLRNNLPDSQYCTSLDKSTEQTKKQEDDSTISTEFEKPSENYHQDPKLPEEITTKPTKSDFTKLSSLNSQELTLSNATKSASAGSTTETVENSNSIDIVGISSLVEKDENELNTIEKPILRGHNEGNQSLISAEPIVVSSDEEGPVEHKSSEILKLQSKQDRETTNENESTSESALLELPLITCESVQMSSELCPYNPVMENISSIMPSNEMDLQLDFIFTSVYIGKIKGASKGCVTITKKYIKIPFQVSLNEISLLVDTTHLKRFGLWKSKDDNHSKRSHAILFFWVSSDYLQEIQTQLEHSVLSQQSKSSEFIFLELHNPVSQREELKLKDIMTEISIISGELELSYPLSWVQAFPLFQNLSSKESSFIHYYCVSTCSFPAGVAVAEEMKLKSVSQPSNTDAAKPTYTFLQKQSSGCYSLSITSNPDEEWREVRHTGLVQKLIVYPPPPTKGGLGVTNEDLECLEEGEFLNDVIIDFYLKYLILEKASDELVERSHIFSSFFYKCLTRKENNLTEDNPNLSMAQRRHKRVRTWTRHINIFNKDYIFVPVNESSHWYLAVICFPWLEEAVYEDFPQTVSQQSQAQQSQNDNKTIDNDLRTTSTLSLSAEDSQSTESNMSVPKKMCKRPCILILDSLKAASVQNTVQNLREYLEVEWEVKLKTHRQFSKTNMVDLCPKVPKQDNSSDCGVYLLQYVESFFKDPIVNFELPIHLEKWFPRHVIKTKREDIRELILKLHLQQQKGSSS

[10] = biological target: T3, Sentrin-specific protease 6 (Homo sapiens, UniProt Q9GZR1); type: functional;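 also: Luminescence-based dose-response confirmatory assay of SENP6 inhibition, following up an ultra-high-throughput screen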
T3 sequence (Q9GZR1 whole entry): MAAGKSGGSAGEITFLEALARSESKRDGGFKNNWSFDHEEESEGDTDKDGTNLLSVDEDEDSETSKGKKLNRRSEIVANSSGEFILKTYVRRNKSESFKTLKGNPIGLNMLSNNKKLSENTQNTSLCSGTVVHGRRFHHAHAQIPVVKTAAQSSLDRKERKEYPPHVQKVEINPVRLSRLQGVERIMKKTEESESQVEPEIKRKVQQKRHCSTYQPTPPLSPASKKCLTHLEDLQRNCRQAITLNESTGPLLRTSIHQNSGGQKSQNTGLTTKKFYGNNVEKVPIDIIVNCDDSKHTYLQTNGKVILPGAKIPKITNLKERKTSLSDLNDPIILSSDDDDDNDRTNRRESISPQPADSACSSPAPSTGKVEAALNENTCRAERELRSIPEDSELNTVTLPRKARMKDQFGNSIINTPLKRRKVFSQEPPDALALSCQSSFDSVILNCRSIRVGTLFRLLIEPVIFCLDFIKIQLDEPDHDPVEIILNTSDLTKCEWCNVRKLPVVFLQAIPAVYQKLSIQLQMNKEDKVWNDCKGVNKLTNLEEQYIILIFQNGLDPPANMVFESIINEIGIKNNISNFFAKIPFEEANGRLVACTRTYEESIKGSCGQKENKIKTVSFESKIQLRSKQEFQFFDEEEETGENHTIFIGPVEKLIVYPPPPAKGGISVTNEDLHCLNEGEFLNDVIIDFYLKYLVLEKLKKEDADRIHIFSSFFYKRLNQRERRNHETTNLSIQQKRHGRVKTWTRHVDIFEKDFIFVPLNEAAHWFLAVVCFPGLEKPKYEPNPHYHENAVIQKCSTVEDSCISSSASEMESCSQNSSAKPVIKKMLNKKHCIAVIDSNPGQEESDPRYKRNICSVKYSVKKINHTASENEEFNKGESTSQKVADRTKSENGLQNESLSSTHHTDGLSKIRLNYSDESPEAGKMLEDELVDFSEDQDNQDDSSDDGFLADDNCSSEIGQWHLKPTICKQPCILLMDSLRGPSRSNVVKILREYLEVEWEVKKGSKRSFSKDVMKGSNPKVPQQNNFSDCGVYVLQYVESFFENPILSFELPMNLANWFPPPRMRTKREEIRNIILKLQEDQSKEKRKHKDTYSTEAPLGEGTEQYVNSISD

[11] = biological target: T4, Sentrin-specific protease 8 (Homo sapiens, UniProt Q96LD8); type: functional;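 also: luminescence read-out of SENP8 inhibition, dose-response confirmation following an ultra-high-throughput screen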
T4 sequence (Q96LD8 whole entry): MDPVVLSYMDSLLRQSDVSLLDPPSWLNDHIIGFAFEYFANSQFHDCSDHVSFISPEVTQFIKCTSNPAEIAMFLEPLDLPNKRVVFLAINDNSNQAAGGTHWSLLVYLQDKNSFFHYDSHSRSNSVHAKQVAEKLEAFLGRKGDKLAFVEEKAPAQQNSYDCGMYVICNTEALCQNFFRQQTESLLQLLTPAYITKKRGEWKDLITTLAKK

[12] = luciferase reporter signal suppression in cells – H4 neuroglioma cells, luminescence, dose response (AID 1990); type: functional, cell-based
[13] = luciferase reporter signal reduction – luminescence, H4-C neuroglioblastoma cells, dose response (AID 2458); type: functional, cell-based;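 also: H4 neuroglioblastoma cells stably carrying a luciferase reporter gene fusion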
BJ [14] = assay: BJ-TERT fibroblast viability loss – cell-based, RAS-independent, luminescence, dose response (AID 1933); type: functional; settings: Homo sapiens
cells [15] = type: functional, cell-based
[16] = Luminescence Cell-Based Dose Response HTS to Identify Inhibitors of 5'UTR Stem-Loop Driven Prion Protein mRNA Translation in H4 Neuroglioblastoma Cells. [Related pubchem assays: 1827 (Project Summary), 1813 (Primary HTS)]; type: functional
[17] = alpha-synuclein stem-loop luciferase translation blockers – H4 neuroglioma cells, luminescence, confirmation (AID 1988); type: functional, cell-based
BJ [18] = assay: cells; type: functional, cell-based; settings: Homo sapiens
BJ [19] = assay: BJ-TERT-LT-ST fibroblast viability loss – cell-based, RAS-independent, luminescence, dose response (AID 1935); type: functional; settings: Homo sapiens;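 also: BJ fibroblasts immortalized with TERT plus LT and ST oncogenes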
[20] = DRD fibroblast viability loss – cell-based, non-viral oncogenic, luminescence, dose response (AID 1934); type: functional; settings: Homo sapiens
[21] = alpha-synuclein stem-loop translation blockers – luminescence, H4 neuroglioblastoma cells, dose confirmation, confirmation (AID 2454); type: functional, cell-based;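 also: H4 neuroglioblastoma cells carrying an alpha-synuclein 5'UTR luciferase reporter; potency for inhibition of the luciferase signal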
BJ [22] = assay: growth inhibition of engineered Ras-driven BJ cells – cell-based, alamar blue fluorescence, cherrypicked samples, dose response (AID 2631); type: functional; settings: Homo sapiens;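 also: confirmatory dose-response assay in RAS-dependent BJ fibroblasts engineered with TERT, LT and ST, with cytotoxicity read by fluorescence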
cells [23] = type: functional, cell-based; remark: listed apart in the source
[24] = biological target: T5, Nuclear receptor subfamily 0 group B member 1 (Homo sapiens, UniProt P51843); type: functional, cell-based;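 also: HEK293T cells transfected with SF-1 and DAX-1 plus StAR promoter luciferase reporter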
T5 sequence (P51843 whole entry): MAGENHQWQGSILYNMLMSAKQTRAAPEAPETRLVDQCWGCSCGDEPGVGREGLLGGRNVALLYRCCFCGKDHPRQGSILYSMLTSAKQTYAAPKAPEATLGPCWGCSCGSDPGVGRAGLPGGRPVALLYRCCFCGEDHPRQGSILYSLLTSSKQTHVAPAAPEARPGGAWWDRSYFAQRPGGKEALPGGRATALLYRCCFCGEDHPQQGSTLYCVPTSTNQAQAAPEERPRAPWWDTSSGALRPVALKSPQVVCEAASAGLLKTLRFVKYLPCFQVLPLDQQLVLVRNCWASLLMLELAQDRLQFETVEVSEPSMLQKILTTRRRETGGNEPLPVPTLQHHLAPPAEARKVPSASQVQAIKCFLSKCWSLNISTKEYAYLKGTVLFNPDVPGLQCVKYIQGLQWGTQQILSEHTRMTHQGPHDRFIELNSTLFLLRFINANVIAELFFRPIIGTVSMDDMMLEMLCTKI

[25] = tested on: Streptococcus sp. 'group A'; assay: Streptococcus pyogenes SK(-)GAS viability under kanamycin – luminescence, BacTiterGlo, confirmation, counter-screen for streptokinase expression inhibitor project, dose response (AID 1900); type: functional, organism-based
Streptococcus = assay: GAS UMAA2166 growth inhibition – luminescence, BacTiterGlo, counter-screen for streptokinase expression inhibitor project, dose response (AID 1915); type: functional, organism-based;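 also: potency for reduction of bacterial viability or growth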
Cytochrome P450 2C19 = Cytochrome P450 2C19 (Homo sapiens, UniProt P33261); assay: Cytochrome panel assay with activity outcomes. Panel member name: p450-cyp2c19 Compounds with AC50 equal or less than 10 uM are considered active; type: functional; settings: read-out: AC50
Cytochrome P450 2C19, sequence (P33261 whole entry): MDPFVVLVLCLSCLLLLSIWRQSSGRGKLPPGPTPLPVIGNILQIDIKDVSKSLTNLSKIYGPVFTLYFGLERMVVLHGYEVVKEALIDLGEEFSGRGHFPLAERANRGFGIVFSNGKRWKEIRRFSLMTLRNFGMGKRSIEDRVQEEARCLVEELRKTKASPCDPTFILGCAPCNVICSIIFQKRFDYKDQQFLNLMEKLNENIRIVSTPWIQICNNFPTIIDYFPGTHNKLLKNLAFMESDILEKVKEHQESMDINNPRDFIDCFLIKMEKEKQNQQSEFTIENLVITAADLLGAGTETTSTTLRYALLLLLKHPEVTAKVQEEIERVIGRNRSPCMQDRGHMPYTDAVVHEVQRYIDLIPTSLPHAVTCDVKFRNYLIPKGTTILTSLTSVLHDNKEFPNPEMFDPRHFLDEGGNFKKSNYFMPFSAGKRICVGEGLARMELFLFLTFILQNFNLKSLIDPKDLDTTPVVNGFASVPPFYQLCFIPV

Cytochrome P450 1A2 = biological target: T6, Cytochrome P450 1A2 (Homo sapiens, UniProt P05177);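 also: PubChem cytochrome P450 panel assay, CYP1A2 panel member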
T6 sequence (P05177 whole entry): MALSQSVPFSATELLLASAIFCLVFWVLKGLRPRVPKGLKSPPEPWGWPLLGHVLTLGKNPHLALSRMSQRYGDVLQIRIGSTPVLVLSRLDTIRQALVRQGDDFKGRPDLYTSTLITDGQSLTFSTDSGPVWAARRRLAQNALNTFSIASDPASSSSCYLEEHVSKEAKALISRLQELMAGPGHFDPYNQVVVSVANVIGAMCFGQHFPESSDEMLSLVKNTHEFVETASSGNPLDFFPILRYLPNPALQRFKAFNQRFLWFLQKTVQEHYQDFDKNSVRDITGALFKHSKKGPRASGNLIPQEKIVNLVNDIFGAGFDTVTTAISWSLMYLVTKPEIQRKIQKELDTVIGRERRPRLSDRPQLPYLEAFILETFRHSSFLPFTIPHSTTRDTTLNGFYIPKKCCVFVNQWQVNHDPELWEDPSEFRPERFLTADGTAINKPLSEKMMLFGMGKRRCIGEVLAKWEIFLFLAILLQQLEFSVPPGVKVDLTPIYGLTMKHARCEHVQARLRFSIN

Cytochrome P450 3A4 = Cytochrome P450 3A4 (Homo sapiens, UniProt P08684);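 also: CYP3A4 tested as one member of a cytochrome P450 panel screen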
Cytochrome P450 3A4, sequence (P08684 whole entry): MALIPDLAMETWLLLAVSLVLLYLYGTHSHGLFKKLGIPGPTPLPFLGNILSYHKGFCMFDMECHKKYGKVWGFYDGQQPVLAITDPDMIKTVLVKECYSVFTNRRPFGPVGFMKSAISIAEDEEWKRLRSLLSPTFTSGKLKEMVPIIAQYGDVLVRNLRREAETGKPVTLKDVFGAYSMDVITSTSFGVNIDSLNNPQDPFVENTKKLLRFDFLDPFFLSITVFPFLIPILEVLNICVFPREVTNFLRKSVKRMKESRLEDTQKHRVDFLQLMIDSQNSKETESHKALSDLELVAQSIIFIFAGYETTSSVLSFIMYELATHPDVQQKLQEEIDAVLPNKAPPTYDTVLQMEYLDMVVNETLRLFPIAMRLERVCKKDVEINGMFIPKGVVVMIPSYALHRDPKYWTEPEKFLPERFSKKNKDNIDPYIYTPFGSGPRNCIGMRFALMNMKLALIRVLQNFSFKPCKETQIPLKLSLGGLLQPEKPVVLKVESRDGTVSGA

N#CC1c2ccccc2-n2nncc2CN1Cc1cc(Cl)cc(Cl)c1 (stereo not drawn)
IC50 [1]: 5.8 µM (active) | AC50 (Paired box protein Pax-8): 10.2 µM (active) | AC50 [2]: 15.2 µM (active) | AC50 [3]: 7.48 µM (active) | AC50 [4]: 3.37 µM (active) | AC50 [5]: 2.45 µM (active) | AC50 [6]: 6.5 µM (active) | AC50 (Escherichia coli [7]): 22.5 µM (active) | AC50 (Escherichia coli [8]): 2.36 µM (active)

COc1ccc2nc(NC(=O)c3cccc(OCc4c(C)noc4C)c3)sc2c1
IC50 (Caspase-3): > 100 µM (inactive) | IC50 [9]: 3.67 µM (active) | IC50 [10]: 4.78 µM (active) | IC50 [11]: > 100 µM (inactive)

Cc1cccc(/C=N\N=C\c2cccc(C)c2)c1
IC50 (Caspase-3): 24.6 µM (active) | IC50 [9]: 7.09 µM (active) | IC50 [10]: 27.6 µM (active) | IC50 [11]: 47 µM (active)

O=C(c1cc([N+](=O)[O-])ccc1N1CCOCC1)N1CCN(c2ccccc2)CC1
EC50 [12]: 681 nM (active) | EC50 [13]: 501 nM (active) | EC50 (BJ [14]): 309 nM (active) | EC50 (cells [15]): 959 nM (active) | EC50 [16]: < 100 nM (active) | EC50 [17]: < 100 nM (active) | EC50 (BJ [18]): 1.2 µM (inconclusive) | EC50 (BJ [19]): 338 nM (inconclusive) | EC50 [20]: 633 nM (inconclusive) | EC50 [21]: 738 nM (active) | EC50 (BJ [22]): < 104 nM (active) | IC50 (cells [23]): > 67.5 µM (inactive) | IC50 [24]: > 67.5 µM (inactive) | AC50 (Paired box protein Pax-8): 3.76 µM (active)

CN(C)[C@@H]1C(O)=C(C(N)=O)C(=O)[C@@]2(O)C(O)=C3C(=O)c4c(O)ccc(Cl)c4[C@@](C)(O)[C@H]3C[C@@H]12 [CHLORTETRACYCLINE HYDROCHLORIDE]
EC50 [25]: < 60 nM (active) | EC50 (Streptococcus): 148 nM (active) | AC50 (Escherichia coli [7]): 19.8 µM (active) | AC50 (Escherichia coli [8]): 0.93 µM (active)

c1ccc(CN2CCC3(CCCc4ccccc43)CC2)cc1
AC50 (Cytochrome P450 2C19): 10 µM (inconclusive) | AC50 (Cytochrome P450 1A2): 31.6 µM (inconclusive) | AC50 (Cytochrome P450 3A4): inconclusive
